# Measured values taken from patent US20250235460A1, “COMBINATION THERAPY USING GLUCOSE-DEPENDENT INSULINOTROPIC POLYPEPTIDE RECEPTOR ANTAGONIST COMPOUNDS AND GLP-1 RECEPTOR AGONIST COMPOUNDS” (Pfizer Inc., priority 2024, published 2025).
# What was measured:
# human GLP-1R [1] = target: human GLP-1R (Homo sapiens, UniProt P43220, G168S); test: CHO GLP-1R Clone H6 cAMP HTRF agonist assay (Assay 1, high receptor density); assay type: cell-based; conditions: for EC50: CHO GLP-1R clone H6, cAMP HTRF, geometric mean; for Emax: CHO GLP-1R clone H6, arithmetic mean, relative to saturating GLP-1 (1 μM), read-out: Assay 1 Emax (%)
# human GLP-1R (Homo sapiens, UniProt P43220, G168S), sequence (P43220 24-463 G168S): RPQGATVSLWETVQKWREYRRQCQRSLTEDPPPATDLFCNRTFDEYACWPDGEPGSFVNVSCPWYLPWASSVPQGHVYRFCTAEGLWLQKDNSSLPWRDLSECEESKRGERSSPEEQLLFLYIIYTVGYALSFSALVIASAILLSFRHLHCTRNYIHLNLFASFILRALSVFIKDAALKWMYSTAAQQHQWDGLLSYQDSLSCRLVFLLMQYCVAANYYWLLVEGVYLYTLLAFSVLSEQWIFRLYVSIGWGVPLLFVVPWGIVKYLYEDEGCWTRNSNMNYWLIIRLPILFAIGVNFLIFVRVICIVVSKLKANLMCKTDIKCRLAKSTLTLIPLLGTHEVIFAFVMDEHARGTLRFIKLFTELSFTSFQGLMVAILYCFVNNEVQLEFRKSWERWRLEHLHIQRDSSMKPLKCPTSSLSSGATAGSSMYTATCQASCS
# In short: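 Replicate runs were pooled. Potencies were averaged geometrically and maximal efficacies arithmetically, then rounded to two significant figures.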
# human GLP-1R [2] = target: human GLP-1R (Homo sapiens, UniProt P43220, L260F); test: CHO GLP-1R Clone C6 cAMP HTRF agonist assay (Assay 2, low receptor density); assay type: cell-based; conditions: for EC50: CHO GLP-1R clone C6, cAMP HTRF, geometric mean; for Emax: CHO GLP-1R clone C6, arithmetic mean, relative to saturating GLP-1 (1 μM)
# human GLP-1R (Homo sapiens, UniProt P43220, L260F), sequence (P43220 24-463 L260F): as the sequence (P43220 24-463 G168S) above, with S145G, L237F counted along it
# Description: In Table 5 and Table 6, assay data are presented to two (2) significant figures as the geometric mean (EC50s) and arithmetic mean (Emax) based on the number of replicates listed (Number). A blank cell means there was no data for that Example or the Emax was not calculated.
SMILES,EC50 (human GLP-1R [1]),Emax (human GLP-1R [1]),EC50 (human GLP-1R [2]),Emax (human GLP-1R [2])
"Cc1ccc(Cn2c(CN3CCC(c4cccc(OCc5ccc(Cl)cc5F)n4)CC3)nc3ccc(C(=O)O)cc32)cn1 [Compound 336B, 2-[(4-{6-[(4-chloro-2-fluorobenzyl)oxy]pyridin-2-l}piperidin-1-yl)methyl]-1-[(6-methylpyridin-3-yl)methyl]-1H-benzimidazole-6-carboxylic acid]",150 nM,68%,5300 nM,80%
"O=C(O)c1ccc2nc(CN3CCC(c4cccc(OCc5ccc(Cl)cc5F)n4)CC3)n(Cc3n[nH]c(C4CC4)n3)c2c1 [Compound 339B, 2-[(4-{6-[(4-chloro-2-fluorobenzyl)oxy]pyridin-2-yl}piperidin-1-yl)methyl]-1-[(5-cyclopropyl-1H-1,2,4-triazol-3-yl)methyl]-1H-benzimidazole-6-carboxylic acid]",36 nM,71%,1600 nM,82%
"O=C(O)c1ccc2nc(CN3CCC(c4cccc(OCc5ccc(Cl)cc5F)n4)CC3)n(Cc3ccon3)c2c1 [Compound 344B, 2-[(4-{6-[(4-chloro-2-fluorobenzyl)oxy]pyridin-2-yl}piperidin-1-yl)methyl]-1-(1,2-oxazol-3-ylmethyl)-1H-benzimidazole-6-carboxylic acid]",37 nM,69%,1200 nM,83%
"Cn1cnnc1Cn1c(CN2CCC(c3cccc(OCc4ccc(Cl)cc4F)n3)CC2)nc2ccc(C(=O)O)cc21 [Compound 345B, 2-[(4-{6-[(4-chloro-2-fluorobenzyl)oxy]pyridin-2-yl}piperidin-1-yl)methyl]-1-[(4-methyl-4H-1,2,4-triazol-3-yl)methyl]-1H-benzimidazole-6-carboxylic acid]",6.1 nM,89%,150 nM,97%
"O=C(O)c1ccc2nc(CN3CCC(c4cccc(OCc5ccc(Cl)cc5F)n4)CC3)n(CCC(F)(F)F)c2c1 [Compound 346B, 2-[(4-{6-[(4-chloro-2-fluorobenzyl)oxy]pyridin-2-yl}piperidin-1-yl)methyl]-1-(3,3,3-trifluoropropyl)-1H-benzimidazole-6-carboxylic acid]",21 nM,79%,540 nM,–
"COCC1(Cn2c(CN3CCC(c4cccc(OCc5ccc(Cl)cc5F)n4)CC3)nc3ccc(C(=O)O)cc32)CCC1 [Compound 347B, 2-[(4-{6-[(4-chloro-2-fluorobenzyl)oxy]pyridin-2-yl}piperidin-1-yl)methyl]-1-{[1-(methoxymethyl)cyclobutyl]methyl}-1H-benzimidazole-6-carboxylic acid]",6.9 nM,78%,170 nM,96%
"COCCn1c(CN2CCN(c3cccc(OCc4ccc(Cl)cc4F)n3)CC2C(F)(F)F)nc2ccc(C(=O)O)cc21 (centres unmarked) [Compound 348B, 2-((4-(6-((4-Chloro-2-fluorobenzyl)oxy)pyridin-2-yl)-2-(trifluoromethyl)piperazin-1-yl)methyl)-1-(2-methoxyethyl)-1H-benzo[d]imidazole-6-carboxylic acid]",54 nM,81%,2100 nM,100%
"COCCn1c(CN2CCN(c3cccc(OCc4ccc(Cl)cc4F)n3)C[C@@H]2C(C)C)nc2ccc(C(=O)O)cc21 [Compound 351B, 2-{[(2S)-4-{6-[(4-chloro-2-fluorobenzyl)oxy]pyridin-2-yl}-2-(propan-2-yl)piperazin-1-yl]methyl}-1-(2-methoxyethyl)-1H-benzimidazole-6-carboxylic acid]",5.2 nM,66%,120 nM,80%
"COCCn1c(CN2CCN(c3cccc(OCc4ccc(Cl)cc4F)n3)CC2(C)C)nc2ccc(C(=O)O)cc21 [Compound 352B, 2-[(4-{6-[(4-chloro-2-fluorobenzyl)oxy]pyridin-2-yl}-2,2-dimethylpiperazin-1-yl)methyl]-1-(2-methoxyethyl)-1H-benzimidazole-6-carboxylic acid]",46 nM,66%,1400 nM,83%
"CC[C@H]1CN(c2cccc(OCc3ccc(Cl)cc3F)n2)CCN1Cc1nc2ccc(C(=O)O)cc2n1CCOC [Compound 353B, 2-{[(2S)-4-{6-[(4-chloro-2-fluorobenzyl)oxy]pyridin-2-yl}-2-ethylpiperazin-1-yl]methyl}-1-(2-methoxyethyl)-1H-benzimidazole-6-carboxylic acid]",5.6 nM,80%,200 nM,89%
"COCCn1c(CN2CCN(c3cccc(OCc4ccc(Cl)cc4F)n3)C[C@@H]2CO)nc2ccc(C(=O)O)cc21 [Compound 354B, 2-{[(2R)-4-{6-[(4-chloro-2-fluorobenzyl)oxy]pyridin-2-yl}-2-(hydroxymethyl)piperazin-1-yl]methyl}-1-(2-methoxyethyl)-1H-benzimidazole-6-carboxylic acid]",94 nM,78%,1500 nM,69%
"COCCn1c(CN2CCN(c3cccc(OCc4ccc(Cl)cc4F)n3)C[C@@H]2C)nc2ccc(C(=O)O)cc21 [Compound 355B, 2-{[(2S)-4-{6-[(4-chloro-2-fluorobenzyl)oxy]pyridin-2-yl}-2-methylpiperazin-1-yl]methyl}-1-(2-methoxyethyl)-1H-benzimidazole-6-carboxylic acid]",6.3 nM,83%,110 nM,87%
"COCCn1c(CN2CCN(c3cccc(OCc4ccc(Cl)cc4F)n3)C[C@H]2C)nc2ccc(C(=O)O)cc21 [Compound 356B, 2-{[(2R)-4-{6-[(4-chloro-2-fluorobenzyl)oxy]pyridin-2-yl}-2-methylpiperazin-1-yl]methyl}-1-(2-methoxyethyl)-1H-benzimidazole-6-carboxylic acid]",100 nM,–,1100 nM,75%
"N#Cc1ccc(COc2cccc(C3CCN(Cc4nc5ccc(C(=O)O)cc5n4CC4CCCO4)CC3)n2)cc1 (centres unmarked) [Compound 359B, 2-[(4-{6-[(4-cyanobenzyl)oxy]pyridin-2-yl}piperidin-1-yl)methyl]-1-(tetrahydrofuran-2-ylmethyl)-1H-benzimidazole-6-carboxylic acid]",1.9 nM,63%,55 nM,75%
"N#Cc1ccc(COc2nc(C3CCN(Cc4nc5ccc(C(=O)O)cc5n4CC4CCCO4)CC3)ccc2F)cc1 (centres unmarked) [Compound 360B, 2-[(4-{6-[(4-cyanobenzyl)oxy]-5-fluoropyridin-2-yl}piperidin-1-yl)methyl]-1-(tetrahydrofuran-2-ylmethyl)-1H-benzimidazole-6-carboxylic acid]",–,72%,–,84%
"N#Cc1ccc(COc2nc(C3CCN(Cc4nc5ccc(C(=O)O)cc5n4CC4CCOC4)CC3)ccc2F)cc1 (centres unmarked) [Compound 361B, 2-[(4-{6-[(4-cyanobenzyl)oxy]-5-fluoropyridin-2-yl}piperidin-1-yl)methyl]-1-(tetrahydrofuran-3-ylmethyl)-1H-benzimidazole-6-carboxylic acid]",–,73%,–,81%
"C[C@H]1CN(c2cccc(OCc3ccc(C#N)cc3)n2)CCN1Cc1nc2ccc(C(=O)O)cc2n1CC1CCCO1 (stereo partly drawn) [Compound 362B, 2-{[(2S)-4-{6-[(4-cyanobenzyl)oxy]pyridin-2-yl}-2-methylpiperazin-1-yl]methyl}-1-(tetrahydrofuran-2-ylmethyl)-1H-benzimidazole-6-carboxylic acid]",12 nM,64%,270 nM,–
"N#Cc1ccc(COc2cccc(C3CCN(Cc4nc5ccc(C(=O)O)cc5n4CC4CCOC4)CC3)n2)c(F)c1 (centres unmarked) [Compound 363B, 2-[(4-{6-[(4-cyano-2-fluorobenzyl)oxy]pyridin-2-yl}piperidin-1-yl)methyl]-1-(tetrahydrofuran-3-ylmethyl)-1H-benzimidazole-6-carboxylic acid]",–,65%,–,71%
"C[C@H]1CN(c2cccc(OCc3ccc(C#N)cc3F)n2)CCN1Cc1nc2ccc(C(=O)O)cc2n1CC1CCCO1 (stereo partly drawn) [Compound 364B, 2-{[(2S)-4-{6-[(4-cyano-2-fluorobenzyl)oxy]pyridin-2-yl}-2-methylpiperazin-1-yl]methyl}-1-(tetrahydrofuran-2-ylmethyl)-1H-benzimidazole-6-carboxylic acid]",1.4 nM,–,20 nM,–
